Entries after “also recorded” stand apart in the source; their conditions may differ.
What was measured:
[1] = molecular target: T1, SLC19A1 (Homo sapiens, UniProt P41440); assay: Reporter response to CDNs in THP-1 cells with SLC19A1 knocked down or overexpressed; conditions: SLC19A1 knockdown vs control, synthetic CDN 1.7 μg/ml, hIFNβ 100 ng/ml, 20 h
T1 sequence (P41440 1-591): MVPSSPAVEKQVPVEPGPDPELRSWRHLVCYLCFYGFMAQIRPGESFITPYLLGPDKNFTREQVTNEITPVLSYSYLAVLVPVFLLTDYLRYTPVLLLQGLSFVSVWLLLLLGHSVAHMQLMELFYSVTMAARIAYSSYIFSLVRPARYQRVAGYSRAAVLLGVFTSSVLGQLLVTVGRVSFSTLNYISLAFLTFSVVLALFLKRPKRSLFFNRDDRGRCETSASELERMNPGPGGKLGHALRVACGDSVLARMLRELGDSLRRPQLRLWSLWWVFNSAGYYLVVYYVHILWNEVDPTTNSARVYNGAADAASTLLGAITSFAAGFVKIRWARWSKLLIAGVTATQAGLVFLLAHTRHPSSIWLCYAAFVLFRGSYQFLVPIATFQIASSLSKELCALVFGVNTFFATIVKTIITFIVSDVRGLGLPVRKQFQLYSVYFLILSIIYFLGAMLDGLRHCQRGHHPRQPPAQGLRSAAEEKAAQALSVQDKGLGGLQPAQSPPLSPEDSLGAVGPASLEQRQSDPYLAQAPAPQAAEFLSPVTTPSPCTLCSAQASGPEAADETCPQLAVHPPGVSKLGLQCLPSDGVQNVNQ
Protocol: To test the role of SLC19A1 in the response to extracellular CDNs, THP-1 cell lines were created in which SLC19A1 was knocked-down or knocked-out, using conventional methods. SLC19A1 knockdown was confirmed and cells were stimulated with synthetic CDN or hIFNβ.
Panel A) Flow cytometry-generated dot plots of THP-1 cells expressing an ISRE-driven tdTomato reporter. Reporter expression was induced upon stimulation with the synthetic CDN (1.7 μg/ml) for 20 h. Panel B) Validation of targets identified by a genome-wide screen using THP-1 cells described in (Panel A) using conventional methods. Cells expressed a control vector or IRF3 or SLC19A1 gRNA. Cells were stimulated with (Panel B) synthetic CDN (1.7 μg/ml) or (Panel D) human interferon-beta (hIFNβ) (100 ng/ml) for 20 h. Cells were analyzed for reporter by flow cytometry as in (A). E) Indicated cell lines expressing SLC19A1 or vector only were stimulated with synthetic CDN (1.7 μg/ml). Reporter expression was measured 20 h after stimulation.

[2] = test system: THP-1 cells expressing an ISRE-driven tdTomato reporter; assay: Synthetic CDN or hIFNβ stimulation of tdTomato reporter THP-1 cells in the presence of sulfasalazine; assay type: cell-based, human
Text: To identify genes encoding molecules involved in this process, a reporter system was created to detect STING activation in response to extracellular CDNs, in order to perform a genetic screen. The reporter was composed of an Interferon Stimulatory Response Element (ISRE) cassette driving the expression of the fluorescent protein tdTomato. […] Subsequently, THP-1 cells containing the reporter were transduced with a genome-wide library of guide RNAs (gRNAs), which suppress expression of target genes. The library targeted 20,000 genes within the human genome. The gRNA library-expressing THP-1 cells were stimulated with synthetic CDN, and the cells were subsequently sorted into two populations based on either low (hyporesponsive) or high (hyper-responsive) levels of tdTomato reporter expression. These populations were sequenced to reveal the RNA targets. As expected, gRNAs targeting components of the STING pathway, including IRF3 and STING itself, were enriched in the hyporesponsive cells and depleted in the hyper-responsive cells, corroborating the success of the screening procedure. Other “hits” in the screen were examined for their role in CDN transport.
The transport activity of folate by SLC19A1 can be altered by a variety of organic and inorganic anions, including the compound sulfasalazine (Jansen et al. “Sulfasalazine is a potent inhibitor of the reduced folate carrier: Implications for combination therapies with methotrexate in rheumatoid arthritis.” Arthritis Rheum. 50, 2130-2139 (2004); Goldman, “The characteristics of the membrane transport of amethopterin and the naturally occurring folates.” Ann. N. Y. Acad. Sci. 186, 400-22 (1971)). […] We therefore tested whether sulfasalazine blocks the response of cells to CDNs.
FIG. 2. Panel A) THP-1 cells were stimulated with synthetic CDN (2.5 μg/ml) in the presence of high concentrations of sulfasalazine (SSZ) or vehicle. Reporter expression was measured 20 h post stimulation. […] Reporter expression was measured 20 h post stimulation.

[3] = molecular target: T1, SLC19A1; conditions: at high doses; cited from earlier work

## Nc1ncnc2c1ncn2[C@@H]1O[C@@H]2COP(=O)(O)O[C@H]3[C@@H](O)[C@H](n4cnc5c(N)ncnc54)O[C@@H]3COP(=O)(O)O[C@H]2[C@H]1O [CDA, cyclic di-AMP]
[1]
  effect of knocking down SLC19A1 expression on the response to the stimulant: reduced the response

## O=C(O)c1cc(/N=N/c2ccc(S(=O)(=O)Nc3ccccn3)cc2)ccc1O [sulfasalazine]
[2]; either low or high sulfasalazine concentrations
  response of the cells to hIFNβ: only marginally affected
[2]; high concentration (1000 μM) of sulfasalazine, synthetic CDN 2.5 μg/ml, 20 h post stimulation
  response to synthetic CDN stimulation (reporter expression): complete blocking; also recorded: almost completely blocked
[2]; low concentrations of sulfasalazine (e.g. 100 μM), synthetic CDN 1.25 μg/ml, 20 h post stimulation
  responsiveness of cells to synthetic CDN compared to untreated cells (reporter expression): significantly increased
[3]
  transport of folates and folate-derivatives by SLC19A1: non-competitively inhibits
